# Results as given in patent publication US20230157952A1, “METHOD FOR IMPROVING THE STABILITY OF A PHARMACEUTICAL COMPOSITION COMPRISING A HIGH PENETRATION DRUG, AND THE PHARMACEUTICAL COMPOSITION OBTAINED THEREFROM” (Techfields Inc., priority 2020, published 2023).
# Test: Effect of concentration on the stability of the solution (purity over time)
# Conditions: 25° C.
structure (smiles),measurement,setting,value
CCN(CC)CCOC(=O)CCCc1ccc(N(CCCl)CCCl)cc1.Cl,Purity (%) at Day 3,0.01 wt % in water,83.1%
same,Purity (%) at Day 7,0.01 wt % in water,72.9%
same,Purity (%) at hr 0,0.01 wt % in water,97.8%
same,Purity(%) at Day 14,0.01 wt % in water,56.9%
same,Purity(%) at Day 21,0.01 wt % in water,43.2%
same,Purity(%) at Day 28,0.01 wt % in water,34.3%
same,Purity (%) at Day 3,0.1 wt % in water,94.1%
same,Purity (%) at Day 7,0.1 wt % in water,89.6%
same,Purity (%) at hr 0,0.1 wt % in water,97.9%
same,Purity(%) at Day 14,0.1 wt % in water,81.5%
same,Purity(%) at Day 21,0.1 wt % in water,73.7%
same,Purity(%) at Day 28,0.1 wt % in water,62.5%
same,Purity (%) at Day 3,1 wt % in water,95.1%
same,Purity (%) at Day 7,1 wt % in water,91.9%
same,Purity (%) at hr 0,1 wt % in water,98.2%
same,Purity(%) at Day 14,1 wt % in water,85.9%
same,Purity(%) at Day 21,1 wt % in water,81.9%
same,Purity(%) at Day 28,1 wt % in water,76.9%
same,Purity (%) at Day 3,3 wt % in water,96.2%
same,Purity (%) at Day 7,3 wt % in water,95.0%
same,Purity (%) at hr 0,3 wt % in water,98.4%
same,Purity(%) at Day 14,3 wt % in water,91.0%
same,Purity(%) at Day 21,3 wt % in water,87.3%
same,Purity(%) at Day 28,3 wt % in water,83.7%
same,Purity (%) at Day 3,5 wt % in water,98.2%
same,Purity (%) at Day 7,5 wt % in water,97.8%
same,Purity (%) at hr 0,5 wt % in water,98.5%
same,Purity(%) at Day 14,5 wt % in water,97.0%
same,Purity(%) at Day 21,5 wt % in water,96.3%
same,Purity(%) at Day 28,5 wt % in water,95.0%
same,Purity (%) at Day 3,7 wt % in water,98.4%
same,Purity (%) at Day 7,7 wt % in water,98.2%
same,Purity (%) at hr 0,7 wt % in water,98.5%
same,Purity(%) at Day 14,7 wt % in water,98.0%
same,Purity(%) at Day 21,7 wt % in water,97.6%
same,Purity(%) at Day 28,7 wt % in water,97.4%
same,Purity (%) at Day 3,8 wt % in water,98. %
same,Purity (%) at Day 7,8 wt % in water,98.3%
same,Purity (%) at hr 0,8 wt % in water,98.5%
same,Purity(%) at Day 14,8 wt % in water,97.9%
same,Purity(%) at Day 21,8 wt % in water,97.7%
same,Purity(%) at Day 28,8 wt % in water,97.3%
same,Purity (%) at Day 3,10 wt % in water,98.5%
same,Purity (%) at Day 7,10 wt % in water,98.3%
same,Purity (%) at hr 0,10 wt % in water,98.6%
same,Purity(%) at Day 14,10 wt % in water,98.2%
same,Purity(%) at Day 21,10 wt % in water,97.7%
same,Purity(%) at Day 28,10 wt % in water,97.4%
same,Purity (%) at Day 3,15 wt % in water,98.5%
same,Purity (%) at Day 7,15 wt % in water,98.4%
same,Purity (%) at hr 0,15 wt % in water,98.6%
same,Purity(%) at Day 14,15 wt % in water,98.1%
same,Purity(%) at Day 21,15 wt % in water,97.7%
same,Purity(%) at Day 28,15 wt % in water,97.3%
same,Purity (%) at Day 3,20 wt % in water,98.4%
same,Purity (%) at Day 7,20 wt % in water,98.3%
same,Purity (%) at hr 0,20 wt % in water,98.6%
same,Purity(%) at Day 14,20 wt % in water,98.2%
same,Purity(%) at Day 21,20 wt % in water,97.8%
same,Purity(%) at Day 28,20 wt % in water,97.3%
same,Purity (%) at Day 3,30 wt % in water,98.4%
same,Purity (%) at Day 7,30 wt % in water,98.4%
same,Purity (%) at hr 0,30 wt % in water,98.5%
same,Purity(%) at Day 14,30 wt % in water,98.3%
same,Purity(%) at Day 21,30 wt % in water,97.7%
same,Purity(%) at Day 28,30 wt % in water,97.4%
same,Purity (%) at Day 3,50 wt % in water,98.4%
same,Purity (%) at Day 7,50 wt % in water,98.3%
same,Purity (%) at hr 0,50 wt % in water,98.6%
same,Purity(%) at Day 14,50 wt % in water,98.2%
same,Purity(%) at Day 21,50 wt % in water,97.8%
same,Purity(%) at Day 28,50 wt % in water,97.4%
CCN(CC)CCOC(=O)CCCc1ccc(N(CCS(C)(=O)=O)CCS(C)(=O)=O)cc1.Cl,Purity (%) at Day 3,0.01 wt % in water,83.4%
same,Purity (%) at Day 7,0.01 wt % in water,73.2%
same,Purity (%) at hr 0,0.01 wt % in water,97.6%
same,Purity(%) at Day 14,0.01 wt % in water,55.2%
same,Purity(%) at Day 21,0.01 wt % in water,43.1%
same,Purity(%) at Day 28,0.01 wt % in water,32.0%
same,Purity (%) at Day 3,0.1 wt % in water,93.7%
same,Purity (%) at Day 7,0.1 wt % in water,88.3%
same,Purity (%) at hr 0,0.1 wt % in water,97.7%
same,Purity(%) at Day 14,0.1 wt % in water,80.6%
same,Purity(%) at Day 21,0.1 wt % in water,71.5%
same,Purity(%) at Day 28,0.1 wt % in water,60.7%
same,Purity (%) at Day 3,1 wt % in water,95.1%
same,Purity (%) at Day 7,1 wt % in water,90.8%
same,Purity (%) at hr 0,1 wt % in water,98.0%
same,Purity(%) at Day 14,1 wt % in water,85.1%
same,Purity(%) at Day 21,1 wt % in water,80.3%
same,Purity(%) at Day 28,1 wt % in water,73.8%
same,Purity (%) at Day 3,3 wt % in water,96.0%
same,Purity (%) at Day 7,3 wt % in water,94.3%
same,Purity (%) at hr 0,3 wt % in water,98.1%
same,Purity(%) at Day 14,3 wt % in water,89.7%
same,Purity(%) at Day 21,3 wt % in water,84.8%
same,Purity(%) at Day 28,3 wt % in water,80.6%
same,Purity (%) at Day 3,5 wt % in water,97.8%
same,Purity (%) at Day 7,5 wt % in water,97.2%
same,Purity (%) at hr 0,5 wt % in water,98.2%
same,Purity(%) at Day 14,5 wt % in water,95.3%
same,Purity(%) at Day 21,5 wt % in water,93.0%
same,Purity(%) at Day 28,5 wt % in water,90.3%
same,Purity (%) at Day 3,7 wt % in water,98.3%
same,Purity (%) at Day 7,7 wt % in water,98.1%
same,Purity (%) at hr 0,7 wt % in water,98.4%
same,Purity(%) at Day 14,7 wt % in water,98.0%
same,Purity(%) at Day 21,7 wt % in water,97.5%
same,Purity(%) at Day 28,7 wt % in water,97.0%
same,Purity (%) at Day 3,8 wt % in water,98.2%
same,Purity (%) at Day 7,8 wt % in water,98.2%
same,Purity (%) at hr 0,8 wt % in water,98.3%
same,Purity(%) at Day 14,8 wt % in water,98.1%
same,Purity(%) at Day 21,8 wt % in water,97.6%
same,Purity(%) at Day 28,8 wt % in water,97.0%
same,Purity (%) at Day 3,10 wt % in water,98.3%
same,Purity (%) at Day 7,10 wt % in water,98.3%
same,Purity (%) at hr 0,10 wt % in water,98.4%
same,Purity(%) at Day 14,10 wt % in water,98.0%
same,Purity(%) at Day 21,10 wt % in water,97.5%
same,Purity(%) at Day 28,10 wt % in water,97.1%
same,Purity (%) at Day 3,15 wt % in water,98.4%
same,Purity (%) at Day 7,15 wt % in water,98.2%
same,Purity (%) at hr 0,15 wt % in water,98.4%
same,Purity(%) at Day 14,15 wt % in water,98.1%
same,Purity(%) at Day 21,15 wt % in water,97.7%
same,Purity(%) at Day 28,15 wt % in water,97.2%
same,Purity (%) at Day 3,20 wt % in water,98.4%
same,Purity (%) at Day 7,20 wt % in water,98.3%
same,Purity (%) at hr 0,20 wt % in water,98.4%
same,Purity(%) at Day 14,20 wt % in water,98.2%
same,Purity(%) at Day 21,20 wt % in water,97.6%
same,Purity(%) at Day 28,20 wt % in water,97.2%
same,Purity (%) at Day 3,30 wt % in water,98.4%
same,Purity (%) at Day 7,30 wt % in water,98.2%
same,Purity (%) at hr 0,30 wt % in water,98.5%
same,Purity(%) at Day 14,30 wt % in water,98.1%
same,Purity(%) at Day 21,30 wt % in water,97.8%
same,Purity(%) at Day 28,30 wt % in water,97.3%
same,Purity (%) at Day 3,50 wt % in water,98.3%
same,Purity (%) at Day 7,50 wt % in water,98.2%
same,Purity (%) at hr 0,50 wt % in water,98.4%
same,Purity(%) at Day 14,50 wt % in water,98.2%
same,Purity(%) at Day 21,50 wt % in water,97.7%
same,Purity(%) at Day 28,50 wt % in water,97.3%
